Data from ChEMBL document CHEMBL1144356 (J Med Chem, 2005).

Assays:
[1] = system: Canis familiaris; experiment: Effect on cholesterol lowering in male Beagle dog at an oral dose of 0.3 mkd for 3 days
[2] = system: Canis familiaris; experiment: Effect on cholesterol lowering in male Beagle dog at an oral dose of 0.01 mkd for 3 days
[3] = target: T1, Peroxisome proliferator-activated receptor alpha (Homo sapiens, UniProt Q07869); experiment: Effective concentration against human PPAR-alpha in Gal4 transactivation assay; format: functional
T1 sequence (Q07869 whole entry): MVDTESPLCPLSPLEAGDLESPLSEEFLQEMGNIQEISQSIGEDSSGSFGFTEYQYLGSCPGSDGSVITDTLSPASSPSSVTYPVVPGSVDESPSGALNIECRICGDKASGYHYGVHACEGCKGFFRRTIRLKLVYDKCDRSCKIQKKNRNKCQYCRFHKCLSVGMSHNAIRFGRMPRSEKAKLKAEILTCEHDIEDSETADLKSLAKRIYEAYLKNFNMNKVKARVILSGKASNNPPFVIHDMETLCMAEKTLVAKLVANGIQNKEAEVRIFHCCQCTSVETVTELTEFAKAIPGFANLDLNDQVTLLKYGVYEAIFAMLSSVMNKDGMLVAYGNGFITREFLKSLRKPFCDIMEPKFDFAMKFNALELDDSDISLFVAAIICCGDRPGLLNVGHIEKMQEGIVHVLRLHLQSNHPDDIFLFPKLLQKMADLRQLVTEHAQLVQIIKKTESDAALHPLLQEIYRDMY

[4] = system: Canis familiaris; experiment: Effect on cholesterol lowering in male Beagle dog at an oral dose of 0.3 mkd for 15 days
[5] = system: Canis familiaris; experiment: Effect on cholesterol lowering in male Beagle dog at an oral dose of 0.03 mkd for 7 days
[6] = system: Cricetinae gen. sp.; experiment: Effect at an oral dose of 0.3 mg/kg/day for 14 days on serum triglyceride level of hamster; format: functional, Cricetulus griseus
[7] = system: Canis familiaris; experiment: Effect on cholesterol lowering in male Beagle dog at an oral dose of 0.1 mkd for 7 days
[8] = system: Canis familiaris; experiment: Effect on cholesterol lowering in male Beagle dog at an oral dose of 0.03 mkd for 15 days
[9] = target: T2, Peroxisome proliferator-activated receptor gamma (Homo sapiens, UniProt P37231); experiment: In vitro binding affinity for PPAR-gamma
T2 sequence (P37231 whole entry): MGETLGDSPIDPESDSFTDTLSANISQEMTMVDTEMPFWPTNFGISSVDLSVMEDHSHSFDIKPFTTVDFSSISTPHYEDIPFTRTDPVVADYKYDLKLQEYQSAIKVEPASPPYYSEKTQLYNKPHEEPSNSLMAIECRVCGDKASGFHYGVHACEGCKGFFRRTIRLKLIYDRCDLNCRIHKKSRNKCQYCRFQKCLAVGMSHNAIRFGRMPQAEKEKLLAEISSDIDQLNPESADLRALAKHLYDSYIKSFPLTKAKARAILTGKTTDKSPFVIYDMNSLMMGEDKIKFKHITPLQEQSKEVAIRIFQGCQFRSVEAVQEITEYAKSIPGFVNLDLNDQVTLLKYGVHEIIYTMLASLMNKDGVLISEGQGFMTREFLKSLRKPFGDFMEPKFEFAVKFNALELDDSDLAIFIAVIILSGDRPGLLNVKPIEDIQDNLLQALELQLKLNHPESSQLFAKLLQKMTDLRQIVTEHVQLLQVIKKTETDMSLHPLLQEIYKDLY

[10] = system: Cricetinae gen. sp.; experiment: Effect at an oral dose of 0.1 mg/kg/day for 14 days on serum triglyceride level of hamster; format: functional, Cricetulus griseus
[11] = system: Cricetinae gen. sp.; experiment: Effect at an oral dose of 0.3 mg/kg/day for 14 days on serum cholesterol level of hamster; format: functional, Cricetulus griseus
[12] = In vitro binding affinity for PPAR-alpha; set-up: species or system Homo sapiens
[13] = system: Canis familiaris; experiment: Effect on cholesterol lowering in male Beagle dog at an oral dose of 0.3 mkd for 3 days with 4 mkd simavastatin
[14] = system: Canis familiaris; experiment: Effect on cholesterol lowering in male Beagle dog at an oral dose of 0.03 mkd for 10 days
[15] = system: Canis familiaris; experiment: Effect on cholesterol lowering in male Beagle dog at an oral dose of 0.1 mkd for 3 days
[16] = system: Canis familiaris; experiment: Effect on cholesterol lowering in male Beagle dog at an oral dose of 0.3 mkd for 10 days with 4 mkd simavastatin
[17] = system: Canis familiaris; experiment: Effect on cholesterol lowering in male Beagle dog at an oral dose of 0.01 mkd for 15 days
[18] = system: Canis familiaris; experiment: Effect on cholesterol lowering in male Beagle dog at an oral dose of 0.03 mkd for 3 days
[19] = target: T2, Peroxisome proliferator-activated receptor gamma; experiment: Effective concentration against human PPAR-gamma in Gal4 transactivation assay; 30% response at 3 uM; format: functional
[20] = target: T3, Peroxisome proliferator-activated receptor alpha (Canis lupus familiaris, UniProt Q95N78); experiment: Effective concentration against canine PPAR-alpha in Gal4 transactivation assay
T3 sequence (Q95N78 whole entry): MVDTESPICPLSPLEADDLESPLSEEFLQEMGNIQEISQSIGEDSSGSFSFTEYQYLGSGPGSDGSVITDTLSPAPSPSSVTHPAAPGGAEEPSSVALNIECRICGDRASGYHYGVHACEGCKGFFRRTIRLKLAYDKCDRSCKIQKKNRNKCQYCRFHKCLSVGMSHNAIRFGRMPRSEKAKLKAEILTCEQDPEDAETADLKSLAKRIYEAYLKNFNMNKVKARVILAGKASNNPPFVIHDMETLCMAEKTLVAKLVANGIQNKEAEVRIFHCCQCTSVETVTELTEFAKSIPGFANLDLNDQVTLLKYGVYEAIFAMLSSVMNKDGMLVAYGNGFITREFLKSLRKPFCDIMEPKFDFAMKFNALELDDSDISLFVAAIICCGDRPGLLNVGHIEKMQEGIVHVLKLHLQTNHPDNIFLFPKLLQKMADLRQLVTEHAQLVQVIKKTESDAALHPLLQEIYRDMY

[21] = system: Canis familiaris; experiment: Effect on cholesterol lowering in male Beagle dog at an oral dose of 0.3 mkd for 7 days
[22] = system: Cricetinae gen. sp.; experiment: Effect at an oral dose of 1 mg/kg/day for 14 days on serum triglyceride level of hamster; format: functional, Cricetulus griseus
[23] = system: Canis familiaris; experiment: Effect on cholesterol lowering in male Beagle dog at an oral dose of 0.3 mkd for 15 days with 4 mkd simavastatin
[24] = system: Canis familiaris; experiment: Effect on cholesterol lowering in male Beagle dog at an oral dose of 0.1 mkd for 10 days
[25] = system: Canis familiaris; experiment: Effect on cholesterol lowering in male Beagle dog at an oral dose of 0.3 mkd for 10 days

With `CC[C@@]1(C(=O)O)Cc2cc(OCCCOc3ccc(OC(F)(F)F)cc3Cl)ccc2O1` the TC [1] was -10.1%, the TC [2] was -6.7% and the EC50 [3] was 2 nM. The TC [4] was -24.2%, the TC [5] was -11.2% and the TG [6] was -31.85%. It also gave a TC [7] of -18%, a TC [8] of -24.3% and an IC50 [9] of over 15000 nM. It also gave a TG [10] of -11.78%, a TC [11] of -30% and an IC50 [12] of 6 nM. For the same compound, the TC [13] was -14.2%, the TC [14] was -17.9% and the TC [15] was -7.5%. The TC [16] was -36.9%, the TC [17] was -21% and the TC [18] was -6.5%. The EC50 [19] was over 3000 nM, the EC50 [20] was 2 nM and the TC [21] was -17.4%. For the same compound, the TG [22] was -43.65%, the TC [23] was -39.7% and the TC [24] was -22.1%. For the same compound, the TC [25] was -20.5%.
